Each structure is given as a SMILES string.

The first experiment deals with IL-1β production in PMA-differentiated THP-1 cells. Description: IL-1β production in PMA-differentiated THP-1 cells stimulated with gramicidin (hTHP-1 assay, 2% fetal bovine serum; Procedures 1-3). The class given is cell-based, human. As to conditions: Homo sapiens, THP-1, hTHP-1 assay containing 2% fetal bovine serum; class symbols; read-out: hTHP-1 IC50 (Average IC50 of compounds in hTHP-1 assay). In short, it runs like this: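 Readout is HTRF of IL-1β in cell-free supernatant after 2 h gramicidin (5 μM) challenge. Cells: THP-1 differentiated with PMA 20 ng/ml for 16-18 h, plated 50,000/well in 2% FBS RPMI, exposed to compound 1 h beforehand at final 100–0.0017 μM, DMSO 0.37%.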
As for `CC(C)(O)c1cnc(S(N)(=O)=NC(=O)Nc2c3c(cc4c2OCC4)CCC3)s1` (stereo not shown) [Example 258, 5-(2-Hydroxypropan-2-yl)-N′-((3,5,6,7-tetrahydro-2H-indeno[5,6-b]furan-8-yl)carbamoyl)thiazole-2-sulfonimidamide], the IC50 lay in the range of 40 to 200 nM. Consider `CC(C)(O)c1csc(S(N)(=O)=NC(=O)Nc2c3c(cc4c2OCC4)CCC3)n1` (stereo not shown) [Example 263, 4-(2-Hydroxypropan-2-yl)-N′-((3,5,6,7-tetrahydro-2H-indeno[5,6-b]furan-8-yl)carbamoyl)thiazole-2-sulfonimidamide], for which the IC50 was in the range of 8 to 40 nM. The same measure, in the same setting: with `CN(C)C(C)(C)c1ccc(S(N)(=O)=NC(=O)Nc2c3c(cc4c2CCC4)CCC3)cc1` (stereo not shown) [Example 267, 4-(2-(Dimethylamino)propan-2-yl)-N′-(1,2,3,5,6,7-hexahydro-s-indacen-4-ylcarbamoyl)benzenesulfonimidamide] the figure was 40 to 200 nM; with `CC(C)(O)c1cc(F)c(S(N)(=O)=NC(=O)Nc2c3c(cc4c2CCC4)CCC3)s1` (stereo not shown) [Example 269, 3-Fluoro-N′-(1,2,3,5,6,7-hexahydro-s-indacen-4-ylcarbamoyl)-5-(2-hydroxypropan-2-yl)thiophene-2-sulfonimidamide], 8 to 40 nM. For the molecule `COC(C)(C)c1ccc(S(N)(=O)=NC(=O)Nc2c3c(cc4c2CCC4)CCC3)cc1` (stereo not shown) [Example 274, N′-(1,2,3,5,6,7-hexahydro-s-indacen-4-ylcarbamoyl)-4-(2-methoxypropan-2-yl)benzenesulfonimidamide], the IC50 fell in the range of 200 to 1000 nM.

In the case of `CN(C)Cc1ccc(S(N)(=O)=NC(=O)Nc2c3c(cc4c2CCC4)CCC3)nc1` (stereo not shown) [Example 278, 5-((Dimethylamino)methyl)-N′-(1,2,3,5,6,7-hexahydro-s-indacen-4-ylcarbamoyl)pyridine-2-sulfonimidamide], the IC50 lay in the range of 200 to 1000 nM. On the same count and under the same terms, in the case of `CN(C)Cc1cc(F)c(S(N)(=O)=NC(=O)Nc2c3c(cc4c2CCC4)CCC3)s1` (stereo not shown) [Example 279, 5-((Dimethylamino)methyl)-3-fluoro-N′-(1,2,3,5,6,7-hexahydro-s-indacen-4-ylcarbamoyl)thiophene-2-sulfonimidamide] it was 8 to 40 nM; in that of `CC(C)(O)c1ncc(S(N)(=O)=NC(=O)Nc2cc3c(c4c2CCC4)CCC3)s1` (stereo not shown) [Example 285, N′-((1,2,3,6,7,8-hexahydro-as-indacen-4-yl)carbamoyl)-2-(2-hydroxypropan-2-yl)thiazole-5-sulfonimidamide], 40 to 200 nM; in that of `CC(C)(O)c1ncc(S(N)(=O)=NC(=O)Nc2c3c(cc4c2OCC4)CCC3)s1` (stereo not shown) [Example 289, 2-(2-Hydroxypropan-2-yl)-N′-((3,5,6,7-tetrahydro-2H-indeno[5,6-b]furan-8-yl)carbamoyl)thiazole-5-sulfonimidamide], 40 to 200 nM. For `COC(C)(C)c1ncc(S(N)(=O)=NC(=O)Nc2c3c(cc4c2CCC4)CCC3)s1` (stereo not shown) [Example 295, N′-((1,2,3,5,6,7-hexahydro-s-indacen-4-yl)carbamoyl)-2-(2-methoxypropan-2-yl)thiazole-5-sulfonimidamide], the IC50 fell in the range of 40 to 200 nM.

The same experiment, now with this note: hTHP-1 assay containing 2% fetal bovine serum; class symbols; read-out: hTHP-1 IC50 (Average IC50 of compounds in hTHP-1 assay).
In the case of `CC(c1ccc(S(N)(=O)=NC(=O)Nc2c3c(cc4c2CCC4)CCC3)cc1)N(C)C` (stereo not shown) [Example 266, 4-(1-(Dimethylamino)ethyl)-N′-(1,2,3,5,6,7-hexahydro-s-indacen-4-ylcarbamoyl)benzenesulfonimidamide], the IC50 lay in the range of 40 to 200 nM. With `CN1CCCC1c1ccc(S(=N)(=O)NC(=O)Nc2c3c(cc4c2CCC4)CCC3)cc1` (stereo not shown) [Example 283, N-((1,2,3,5,6,7-hexahydro-s-indacen-4-yl)carbamoyl)-4-(1-methylpyrrolidin-2-yl)benzenesulfonimidamide], the IC50 fell in the range of 200 to 1000 nM. For the molecule `CC1CCc2c1cc1c(c2NC(=O)N=S(N)(=O)c2cnc(C(C)(C)O)s2)CCC1` (stereo not shown) [Example 291, 2-(2-Hydroxypropan-2-yl)-N′-((1-methyl-1,2,3,5,6,7-hexahydro-s-indacen-4-yl)carbamoyl)thiazole-5-sulfonimidamide], the IC50 fell in the range of 40 to 200 nM. Turning to `CC1CCc2cc3c(c(NC(=O)N=S(N)(=O)c4cnc(C(C)(C)O)s4)c21)CCC3` (stereo not shown) [Example 292, 2-(2-Hydroxypropan-2-yl)-N′-((3-methyl-1,2,3,5,6,7-hexahydro-s-indacen-4-yl)carbamoyl)thiazole-5-sulfonimidamide], the IC50 lay in the range of 40 to 200 nM. On to `[2H]C([2H])([2H])C(O)(c1ncc([S@](N)(=O)=NC(=O)Nc2c3c(cc4c2CCC4)CCC3)s1)C([2H])([2H])[2H]` [Example 393, (R)-N′-((1,2,3,5,6,7-hexahydro-s-indacen-4-yl)carbamoyl)-2-(2-hydroxypropan-2-yl-1,1,1,3,3,3-d6)thiazole-5-sulfonimidamide], for which the IC50 fell in the range of 8 to 40 nM. On to `[2H]C([2H])([2H])C(O)(c1ncc([S@@](N)(=O)=NC(=O)Nc2c3c(cc4c2CCC4)CCC3)s1)C([2H])([2H])[2H]` [Example 394, (S)-N′-((1,2,3,5,6,7-hexahydro-s-indacen-4-yl)carbamoyl)-2-(2-hydroxypropan-2-yl-1,1,1,3,3,3-d6)thiazole-5-sulfonimidamide], for which the IC50 was 200 to 1000 nM.

The term IC50 denotes the point on the concentration scale where inhibition reaches its midpoint.

These data come from patent US11724992B2 (Novartis AG, priority 2017, dated 2023).
